Assay results published in patent publication US8835467B2, “SIR2 regulation” (Albert Einstein College of Medicine of Yeshiva University, priority 2003, dated 2014).
“And” between values parts separate entries of the source, which are not always exact repeats. Equal entries are not always repeated.

Tests used:
[1] = target: T1, Bacterial SIR2Af2 (Archaeoglobus fulgidus, UniProt O30124); experiment: SIR2 nicotinamide base-exchange assay (p53 peptide, HPLC/14C); format: biochemical, Archeaglobus fulgidus; design: kcat (exchange): dose or concentration left out as unconfirmed
T1 construct: made in house
T1 sequence (O30124 1-253): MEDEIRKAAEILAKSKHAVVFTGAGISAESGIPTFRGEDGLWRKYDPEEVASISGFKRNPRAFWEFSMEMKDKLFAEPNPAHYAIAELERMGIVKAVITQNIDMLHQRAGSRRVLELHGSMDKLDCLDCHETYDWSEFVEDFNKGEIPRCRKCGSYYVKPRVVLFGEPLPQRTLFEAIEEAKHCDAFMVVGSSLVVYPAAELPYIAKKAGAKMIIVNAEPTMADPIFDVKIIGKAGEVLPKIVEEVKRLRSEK
Experimental: (§1) After 2 hours, aliquots of 10 μL removed at 0, 30, 60, 90 and 120 min. Each aliquot was combined with 50 μL 50 mM ammonium acetate pH 5.0 to quench and assayed by HPLC for deacetylation products and NAD^+. The chromatograms (260 nm) were obtained using 50 mM ammonium acetate pH 5.0 as eluant on a semi-preparative Waters C-18 column (2.0 mL/min flow rate). Peaks for ADPR and 3′-O-Acetyl-ADPR were quantified by integration. The peak for NAD^+ was collected and radiation counted. […] Plots of deacetylation rate versus nicotinamide were fit to the equations described in the text.

[2] = test system: Sir2-dependent transcriptional silencing at the silent mating-type loci (HMR, HML); experiment: Silent mating-type locus reporter silencing, spot assay; format: cell-based, yeast
Experimental: The photographs were taken after 2 to 3 days incubation. […] Isogenic strains UCC4562 (DOT1) and UCC4554 (dot1Δ) (Singer et al., 1998) are shown in each panel (top and bottom rows, respectively). […] The phenotype of strain CCFY10028 (top row) is compared to an isogenic sir2 derivative (bottom row). The sir2 deletion strain was generated by PCR-mediated gene disruption using a Nat-MX selectable marker (Tong et al., 2004).
The deletion strains were generated by PCR-mediated gene disruption using a Nat-MX selectable marker (Tong et al., 2004). Silencing at TEL-VR::URA3 is reported by survival on FOA-containing media and at HMR::TRP1 is detected by reduced growth on media lacking tryptophan.
The effect of isonicotinamide on Sir2 activity at the silent mating-type loci was measured in an HMR: TRP1 strain by growth on medium lacking tryptophan (FIG. 8b). Silencing of TRP1 decreases growth on Trp^− media.

[3] = target: Yeast Sir2 (Saccharomyces cerevisiae, UniProt P06700); experiment: Sir2 catalyzed deacetylation of H4 N-terminal peptide; format: biochemical; conditions: Ki, apparent nicotinamide inhibition constant (deacetylation)
Experimental: Measurements were performed by methods described in Sauve and Schramm (2003) with the H4N-terminal peptide (AGG(AcK)GG(AcK)GMG(AcK)VGA(AcK)RHSC) (Imai et al., 2000) as substrate.

[4] = target: T1, Bacterial SIR2Af2; experiment: SIR2 deacetylation assay (p53 peptide, HPLC of ADPR and 3′-O-acetyl-ADPR); format: biochemical, Archeaglobus fulgidus
Experimental: as §1
(§2) Reactions were as above but base reactions contained 5 mM of pyrazinamide, isonicotinamide, thionicotinamide, or benzamide. Reactions were carried out (2 hours for AF2 and yeast enzymes and 3 hours for mouse enzyme) at 37° C. and quenched by addition of 80 μL 50 mM ammonium acetate pH 5.0. Product formation was quantified by HPLC. Thionicotinamide-NAD^+ was synthesized by CD38. Rates were compared with controls lacking added base.

[5] = target: T2, Mouse SIR2 enzyme (SIR2α) (Mus musculus, UniProt Q923E4); experiment: SIR2 nicotinamide base-exchange assay (p53 peptide, HPLC/14C); format: biochemical; design: kcat (exchange): dose or concentration left out as unconfirmed
T2 construct: purchased Upstate Group
T2 sequence (Q923E4 1-737): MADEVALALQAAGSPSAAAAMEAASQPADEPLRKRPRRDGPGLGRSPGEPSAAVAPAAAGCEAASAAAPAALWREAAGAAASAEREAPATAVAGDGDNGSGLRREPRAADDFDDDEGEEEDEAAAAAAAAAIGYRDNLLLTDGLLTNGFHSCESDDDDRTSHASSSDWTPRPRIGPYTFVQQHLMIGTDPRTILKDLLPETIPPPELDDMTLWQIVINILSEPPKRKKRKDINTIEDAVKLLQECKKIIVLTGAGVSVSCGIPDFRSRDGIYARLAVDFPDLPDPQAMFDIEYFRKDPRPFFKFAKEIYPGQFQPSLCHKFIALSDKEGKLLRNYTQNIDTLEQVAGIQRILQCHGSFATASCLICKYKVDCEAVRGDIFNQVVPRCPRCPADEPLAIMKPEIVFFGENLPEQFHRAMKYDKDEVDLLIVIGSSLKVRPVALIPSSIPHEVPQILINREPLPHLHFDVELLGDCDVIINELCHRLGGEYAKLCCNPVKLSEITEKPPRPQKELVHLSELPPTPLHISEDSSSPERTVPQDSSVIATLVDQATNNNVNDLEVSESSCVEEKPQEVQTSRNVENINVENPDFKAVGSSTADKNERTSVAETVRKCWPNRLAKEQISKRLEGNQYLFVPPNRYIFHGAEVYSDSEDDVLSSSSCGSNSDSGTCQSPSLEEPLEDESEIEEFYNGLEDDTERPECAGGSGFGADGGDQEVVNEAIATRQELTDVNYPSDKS
Experimental: (§3) After 2 hours, aliquots of 10 μL removed at 0, 30, 60, 90 and 120 min. Each aliquot was combined with 50 μL 50 mM ammonium acetate pH 5.0 to quench and assayed by HPLC for deacetylation products and NAD^+. The chromatograms (260 nm) were obtained using 50 mM ammonium acetate pH 5.0 as eluant on a semi-preparative Waters C-18 column (2.0 mL/min flow rate). Peaks for ADPR and 3′-O-Acetyl-ADPR were quantified by integration. The peak for NAD^+ was collected and radiation counted.

[6] = target: T3, Yeast SIR2p (Saccharomyces cerevisiae, UniProt P06700); experiment: as above; format: biochemical; design: kcat (exchange): dose or concentration left out as unconfirmed
T3 construct: made in house
Experimental: as §3

[7] = target: T2, Mouse SIR2 enzyme (SIR2α); experiment: SIR2 deacetylation assay (p53 peptide, HPLC of ADPR and 3′-O-acetyl-ADPR); format: biochemical
Experimental: as §3
as §2, with “Thionicotinamide-NAD^+ was synthesized by CD38.” left out

[8] = target: T3, Yeast SIR2p; experiment: as above; format: biochemical
Experimental: as §3
as §2, with “Thionicotinamide-NAD^+ was synthesized by CD38.” left out

[9] = target: T4, Af2Sir2 (archaean) (Archaeoglobus fulgidus, UniProt O30124); experiment: HPLC assay of deacetylation, histone H4 substrate (Example 3); format: biochemical; conditions: Archaea enzyme
T4 sequence (O30124 1-253): T1 sequence (O30124 1-253)

[10] = target: T5, Sir2p (yeast) (Saccharomyces cerevisiae, UniProt P06700); experiment: as above; format: biochemical; conditions: Yeast enzyme
[11] = target: T4, Af2Sir2 (archaean); experiment: biochemical
Experimental: NAD^+ in 50 μL 50 mM potassium phosphate pH 7.0. Each solution also contained a variable amount of 2-Fluoronicotinamide with concentrations of 0, 5, 10, 20, 40 and 80 mM of the compound. […] Deacetylation was assayed by integration of the peaks for AADPR and ADPR in reaction mixtures.

[12] = target: T4, Af2Sir2 (archaean); experiment: HPLC assay of base exchange, histone H4 substrate (Example 3); conditions: Archaea enzyme
[13] = target: T5, Sir2p (yeast); experiment: as above; format: biochemical; conditions: for % rate (base exchange) / Cpm/sample (radioactivity in NAD peak): Yeast enzyme

T5 sequence (P06700 whole entry): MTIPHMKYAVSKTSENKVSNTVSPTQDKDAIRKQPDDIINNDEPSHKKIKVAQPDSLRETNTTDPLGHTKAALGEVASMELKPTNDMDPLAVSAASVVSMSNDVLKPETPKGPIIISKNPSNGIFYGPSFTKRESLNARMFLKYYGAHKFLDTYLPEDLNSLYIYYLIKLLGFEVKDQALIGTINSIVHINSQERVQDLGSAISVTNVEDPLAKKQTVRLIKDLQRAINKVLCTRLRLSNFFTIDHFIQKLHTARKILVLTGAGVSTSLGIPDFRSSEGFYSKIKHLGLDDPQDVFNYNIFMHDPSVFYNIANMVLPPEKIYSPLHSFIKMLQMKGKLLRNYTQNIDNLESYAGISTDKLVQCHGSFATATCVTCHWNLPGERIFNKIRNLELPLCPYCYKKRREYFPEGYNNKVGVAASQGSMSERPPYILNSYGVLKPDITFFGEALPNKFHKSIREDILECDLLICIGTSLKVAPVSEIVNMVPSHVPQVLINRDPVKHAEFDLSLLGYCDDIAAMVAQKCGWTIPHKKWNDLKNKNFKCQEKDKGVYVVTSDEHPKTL
T3 sequence (P06700 whole entry): as above
Yeast Sir2, sequence (P06700 whole entry): as above

NC(=O)c1cccnc1 [nicotinamide]
Ki [1]: > 8000 µM | kcat (exchange) ([1]; bacterial enzyme, from nicotinamide saturation curves, pH 7.8): 0.00583 ± 0.00067 s⁻¹ | growth phenotype of isogenic sir2Δ strain ([2]; HMR::TRP1, Trp− medium): Neither compound altered the growth phenotype | growth on Trp− medium ([2]; HMR::TRP1 strain, 5 mM nicotinamide): increased growth | Ki ([3]; 0 mM isonicotinamide): 100 µM | Ki ([3]; 60 mM isonicotinamide): 180 µM | Ki ([3]; 100 mM isonicotinamide): 330 µM | Ki [4]: 26 ± 4 µM | intermediate returned to acetylated protein ([4]; bacterial SIR2, saturation of the nicotinamide site): 21% | reduction of deacetylation rate by nicotinamide ([4]; bacterial enzyme, high (>10 Ki) nicotinamide): 21% | kinh (deacetylation), residual deacetylation rate ([4]; bacterial enzyme, in the presence of 2 mM nicotinamide): 1.4 ± 0.2 min⁻¹ | Ki [5]: > 8000 µM | kcat (exchange) ([5]; mouse enzyme, from nicotinamide saturation curves, pH 7.8): 0.05 ± 0.0033 s⁻¹ | Ki [6]: > 8000 µM | kcat (exchange) ([6]; yeast enzyme, from nicotinamide saturation curves, pH 7.8): 0.0967 ± 0.0067 s⁻¹ | Ki [7]: 160 µM | intermediate returned to acetylated protein ([7]; mouse SIR2, saturation of the nicotinamide site): 95% | inhibition of deacetylation by nicotinamide ([7]; mouse enzyme, high nicotinamide concentrations): > 95% and 95% | kinh (deacetylation), residual deacetylation rate ([7]; mouse enzyme, in the presence of 2 mM nicotinamide): 0.014 ± 0.002 min⁻¹ | Ki [8]: 120 ± 25 µM | intermediate returned to acetylated protein ([8]; yeast SIR2, saturation of the nicotinamide site): 65% | reduction of deacetylation rate by nicotinamide ([8]; yeast enzyme, high (millimolar) nicotinamide): 65% | kinh (deacetylation), residual deacetylation rate ([8]; yeast enzyme, in the presence of 2 mM nicotinamide): 0.60 ± 0.08 min⁻¹

NC(=S)c1cccnc1 [Thionicotinamide]
inhibition at 5000 µM [4]: 4% | inhibition at 5000 µM [7]: 16% | inhibition at 5000 µM [8]: 15%

NC(=O)c1ccccc1 [Benzamide]
inhibition at 5000 µM [4]: 5% | inhibition at 5000 µM [7]: 44% | inhibition at 5000 µM [8]: 0%

NC(=O)c1cnccn1 [Pyrazinamide]
inhibition at 5000 µM [4]: 4% | inhibition at 5000 µM [7]: 1% | inhibition at 5000 µM [8]: 1%

NC(=O)c1cccnc1F
% rate (deacetylation) ([9]; 5 mM): 100% | % rate (deacetylation) ([9]; 10 mM): 100% | % rate (deacetylation) ([9]; 20 mM): 100% | % rate (deacetylation) ([9]; 40 mM): 100% | % rate (deacetylation) ([9]; 80 mM): 100% | % rate (deacetylation) ([10]; 5 mM): 100% | % rate (deacetylation) ([10]; 10 mM): 97% | % rate (deacetylation) ([10]; 20 mM): 100% | % rate (deacetylation) ([10]; 40 mM): 95% | % rate (deacetylation) ([10]; 80 mM): 95% | Ki [11]: 43000 µM | % rate (base exchange) ([12]; 5 mM): 91% | Cpm/sample (radioactivity in NAD peak) ([12]; 5 mM): 18,200 Cpm/sample | % rate (base exchange) ([12]; 10 mM): 80% | Cpm/sample (radioactivity in NAD peak) ([12]; 10 mM): 16,100 Cpm/sample | % rate (base exchange) ([12]; 20 mM): 73% | Cpm/sample (radioactivity in NAD peak) ([12]; 20 mM): 14,600 Cpm/sample | % rate (base exchange) ([12]; 40 mM): 50% | Cpm/sample (radioactivity in NAD peak) ([12]; 40 mM): 10,300 Cpm/sample | % rate (base exchange) ([12]; 80 mM): 35% | Cpm/sample (radioactivity in NAD peak) ([12]; 80 mM): 7,000 Cpm/sample | Ki [13]: 20000 µM | % rate (base exchange) ([13]; 5 mM): 76% | Cpm/sample (radioactivity in NAD peak) ([13]; 5 mM): 24,500 Cpm/sample | % rate (base exchange) ([13]; 10 mM): 58% | Cpm/sample (radioactivity in NAD peak) ([13]; 10 mM): 18,800 Cpm/sample | % rate (base exchange) ([13]; 20 mM): 47% | Cpm/sample (radioactivity in NAD peak) ([13]; 20 mM): 15,200 Cpm/sample | % rate (base exchange) ([13]; 40 mM): 36% | Cpm/sample (radioactivity in NAD peak) ([13]; 40 mM): 11,600 Cpm/sample | % rate (base exchange) ([13]; 80 mM): 28% | Cpm/sample (radioactivity in NAD peak) ([13]; 80 mM): 9,000 Cpm/sample
